Legend:
[1] = tested on: MEC-1 cancer cell line; assay: PBMC cytotoxicity assay against MEC-1 target cells; assay type: cell-based; conditions: 1 μM; control medium; FIG. 1
Procedure: (§1) The TLR7 and NOD2 conjugated compounds of the invention were tested for their ability to activate the cytotoxic activity of peripheral blood mononuclear cells (PBMCs) towards cancer cell lines. The main effector fraction of PBMCs in this assay are natural killer (NK) cells, which play an essential role in the innate immune system through their direct cytotoxic activity against aberrant cells, especially tumour cells and virally infected cells. The flow cytometry-based method described hereafter measures the PBMC cytotoxic activity against target cancer cell lines by co-incubating PBMCs and cancer cells, which were pre-labelled by carboxyfluorescein succinimidyl ester (CFSE) to distinguish them from effector cells. Successful activation of effector cells by the tested compounds leads to higher degree of cell death in the target cell population.
(§2) Chronic myelogenous leukaemia K562 and chronic B cell leukaemia MEC-1 cell lines were used as target cells in the assay. Both cell lines were pre-cultured for at least 10 days before the assay was performed. Immediately prior to the addition of target cells to PBMCs, target cells were stained with CFSE at 2 μM for 15 minutes at 37° C. in the dark. Cells were then washed with medium and resuspended at 200.000 cells/mL.
(§3) PBMCs were isolated from whole blood by centrifugation with the Ficoll-Paque density gradient solution. After centrifugation, PBMCs were washed twice with PBS and resuspended in medium at 4.000.000 cells/mL. To perform the assay, PBMCs were seeded on 96 well microtiter plates at 400.000 cells per well and cultured in duplicates at 37° C. for 20 h in the presence of the compounds.
(§4) The compounds were prepared as follows: First, stock solutions of the conjugated compounds were prepared in DMSO at a 1 mM concentration. […]
(§5) After incubating the PBMCs in the presence of compounds, 10.000 CFSE stained target cells were added to each well for a final 40:1 ratio of effector cells versus target cells. After 4 h of co-incubation, cells were stained with the SYTOXTM Blue (Invitrogen) nucleic acid stain and analysed with flow cytometry. […]

[2] = tested on: K562 cancer cell line; assay: PBMC cytotoxicity assay against K562 target cells; assay type: cell-based; conditions: 1 μM; control medium; FIG. 2
Procedure: as §1, §2, §3, §4, §5

[3] = tested on: CD4 positive T-lymphocytes; assay: Antigen presentation of BMDCs to CD4+ T-lymphocytes; assay type: cell-based, mouse; conditions: for ability to promote BMDC antigen presentation to CD4 positive T-lymphocytes (ratio of CD25 positive T-lymphocytes with low CFSE fluorescence): 100 nM, ovalbumin, FIG. 3; for dose dependence of BMDC antigen presentation to CD4 positive T-lymphocytes: 1 nM to 1 μM, FIG. 5
Procedure: (§6) The effect of the conjugated compounds of the invention on antigen presentation of mouse bone marrow derived dendritic cells (BMDCs) to T-lymphocytes was examined.
(§7) BMDCs were obtained by harvesting bone marrow from mouse hind legs. The harvested cells were then cultured for 10 days in the presence of granulocyte-macrophage colony-stimulating factor
(§8) (GM-CSF) to ensure differentiation into dendritic cells. BMDCs were seeded on 96 well microtiter plates at 10.000 cells per well and stimulated in duplicates with conjugated compounds and ovalbumin (50 μg/mL) at 37° C. for 20 h. After this period, the supernatants were removed and either CD4+ T-Iymphocytes or CD8+ T-Iymphocytes were added.
(§9) The compounds were prepared as follows: First, stock solutions of the conjugated compounds were prepared in DMSO at a 1 mM concentration. The working dilutions of the conjugated compounds in medium were then added directly to BMDCs to ensure final concentrations ranging from 1 nM to 1 μM.
(§10) CD4+ and CD8+ T-lymphocytes were obtained from single-cell suspensions of spleens from OT-II and OT-I transgenic mice, respectively. These express a T-cell receptor that pairs with the CD4 or CD8 co-receptors and is specific for the ovalbumin antigen. After harvesting the spleen, CD4+ or CD8+ cell fractions were enriched with MACS separation technology (Miltenyi Biotec CD4+ T Cell Isolation Kit or CD8+ T Cell Isolation Kit, respectively). T-lymphocytes were then stained with CFSE and added to BMDCs at 50.000 cells per well.
(§11) After co-culturing the BMDCs and T-lymphocytes for 72 hours at 37° C., T-lymphocyte activation was assessed with flow cytometry by measuring the expression of CD25, characteristic for activated T-lymphocytes. Concurrently, the intensity of CFSE fluorescence was measured to evaluate T-lymphocyte proliferation. […] SG48, SG144 and RH32 were the tested conjugated compounds of the invention. Medium was used as a negative control. LPS (1 μg/mL) was used as the positive control. Intermediary compound SG8 was employed as a known NOD2 agonist of the desmuramylpeptide type (Gobec et al. 2018). Intermediary compound SG43 was employed as a known TLR7 agonist of the purine type (Akinbobuyi et al. 2016). The combination of SG8 and SG43 was employed to compare the activity of conjugated compounds against an unconjugated mixture of NOD2 and TLR7 agonists.

[4] = tested on: CD8 positive T-lymphocytes; assay: Antigen presentation of BMDCs to CD8+ T-lymphocytes; assay type: cell-based, mouse; conditions: for ability to promote BMDC antigen presentation to CD8 positive T-lymphocytes (ratio of CD25 positive T-lymphocytes with low CFSE fluorescence): 100 nM, ovalbumin, FIG. 4; for dose dependence of BMDC antigen presentation to CD8 positive T-lymphocytes: 1 nM to 1 μM, FIG. 6
Procedure: as §6, §7, §8, §9, §10, §11

Compound	ability to activate the cytotoxic activity of PBMCs against the MEC-1 cancer cell line (ratio against the control) [1]	ability to activate the cytotoxic activity of PBMCs against the K562 cancer cell line (ratio against the control) [2]	ability to promote BMDC antigen presentation to CD4 positive T-lymphocytes (ratio of CD25 positive T-lymphocytes with low CFSE fluorescence) [3]	ability to promote BMDC antigen presentation to CD8 positive T-lymphocytes (ratio of CD25 positive T-lymphocytes with low CFSE fluorescence) [4]	dose dependence of BMDC antigen presentation to CD4 positive T-lymphocytes [3]	dose dependence of BMDC antigen presentation to CD8 positive T-lymphocytes [4]
CCCCOc1nc(N)c2nc(O)n(Cc3ccc(C(=O)NCCOCCOCCNC(=O)CC[C@@H](NC(=O)[C@@H](NC(=O)CNC(=O)/C=C/c4ccc(O)c(OC)c4)C(C)C)C(=O)OCC)cc3)c2n1 [RH32]	activate the cytotoxic activity of PBMCs	activate the cytotoxic activity of PBMCs	promote BMDC antigen presentation	promote BMDC antigen presentation	–	–
CCCCOc1nc(N)c2nc(O)n(Cc3ccc(C(=O)NCCOCCNC(=O)CC[C@@H](NC(=O)[C@@H](NC(=O)CNC(=O)/C=C/c4ccc(O)c(OC)c4)C(C)C)C(=O)OCC)cc3)c2n1 [SG144, Ethyl N5-(2-(2-(4-((6-amino-2-butoxy-8-hydroxy-9H-purin-9-yl)methyl)benzamido)ethoxy)ethyl)-N2-((E)-3-(4-hydroxy-3-methoxyphenyl)acryloyl)glycyl-L-yalyl-D-glutaminate]	activate the cytotoxic activity of PBMCs	activate the cytotoxic activity of PBMCs	promote BMDC antigen presentation	promote BMDC antigen presentation	dose-dependent	dose-dependent
CCCCOc1nc(N)c2nc(O)n(Cc3ccc(C(=O)NCCCCCC(=O)Oc4ccc(/C=C/C(=O)NCC(=O)N[C@H](C(=O)N[C@H](CCC(=O)OCC)C(=O)OCC)C(C)C)cc4OC)cc3)c2n1 [SG48, Diethyl ((E)-3-(4-((6-(4-((6-amino-2-butoxy-8-hydroxy-9H-purin-9-yl)methyl)benzamido)hexanoyl)-oxy)-3-methoxyphenyl)acryloyl)glycyl-L-yalyl-D-glutamate]	activate the cytotoxic activity of PBMCs	activate the cytotoxic activity of PBMCs	promote BMDC antigen presentation	promote BMDC antigen presentation	dose-dependent	dose-dependent
